Broadly, the Cmax is the highest concentration seen after dosing. One may read the Tmax as the time from dosing to the highest level.

The text below walks through data of patent US8507460B2, “Substituted 3′,5′-cyclic phosphates of purine nucleotide compounds and pharmaceutical compositions for the treatment of viral infections” (priority 2011, dated 2013).

Molecules are shown by their SMILES. Where two headings read alike, the source gives them in different places.

Data set [1] in a line: Plasma and liver pharmacokinetics following a single oral dose in monkeys (Example 6). The conditions noted are these: cynomolgus monkey; for AUC(0-t) / Cmax / Tmax: Cynomolgus monkeys, single oral dose (mg/kg per Table 6: 1a 10, A 25, B 10, C 10, D 50); for AUC(0-t) / Cmax: normalized to 1 μmol/kg dose; for AUC(0-t): read-out: Plasma prodrug AUC0-24; for Cmax: read-out: Plasma prodrug Cmax; for Tmax: read-out: Plasma prodrug Tmax. In kind it is in vivo. The protocol: […] Untreated animals were used for the collection of control liver. Plasma samples were collected at 1, 2, 4, 6, 8, 12 and 24 hours for all compounds and additionally at 0.5 hour (Compounds 1a, B and D), 3 and 10 hours (Compound C), and 32 and 48 hours post dose for Compound A. Terminal liver samples were collected from three animals per time point at 6, 12 and 24 hours post dose for all compounds and additionally at 2 hours (Compounds 1a, B and D), 3 hours (Compound C) and 32 and 48 hours post dose for Compound A. Liver specimens were collected from all animals immediately after the incision. Freezing forceps stored in liquid nitrogen were used to freeze the liver before excision.
(§1) Plasma samples were analyzed for the prodrug and 2′-methylguanosine (2′-MeG) or relevant nucleoside by LC-MS/MS. For protein precipitation and extraction, each plasma sample (50 μL) was treated with 500 μL of 0.2% formic acid in acetonitrile and 20 μL of an appropriate internal standard working solution. After vortexing and centrifugation, 500 μL of the sample extracts were transferred to a new plate, dried under N2 at ˜28° C. and reconstituted with 75 μL of 0.2% FA in water. The extracts were chromatographed on an Aquasil C18 column using a gradient system of 0.2% formic acid in water and acetonitrile. The analytes were detected and quantified by tandem mass spectrometry in positive ion mode on an MDS Sciex API5000 or an API4000 equipped with a Turbo Ionspray® interface. The calibration range was 0.500 (LLOQ) to 200 ng/mL in mouse plasma. The corresponding range for molar units is 1.68 to 673 pmol/mL.
(§2) Liver samples were analyzed for the active species 2′-methylguanosine triphosphate (2′-MeGTP) or relevant nucleoside triphosphate by LC-MS/MS. The triphosphate levels were assayed by homogenizing (on ice) a known weight of mouse liver with 4× volume of 0.95 M trichloroacetic acid (TCA). Appropriate internal standard solution was added to the homogenate followed by neutralization with 20% ammonium hydroxide solution and addition of 500 μL 1% formic acid. The tissue samples were extracted by weak anion exchange solid phase extraction (SPE). Post extraction, the eluates were evaporated under nitrogen, followed by reconstitution before injection onto the LC-MS/MS system. The samples were chromatographed on a Luna NH2 column using a gradient system of ammonium acetate (1 mM to 20 mM and pH 8.0 to pH 10.0) in water and acetonitrile (70:30). The analyte was detected and quantified by tandem mass spectrometry in positive ion mode on an API4000 equipped with a Turbo Ionspray® interface. The calibration range was 10 to 10000 pmol/mL in mouse liver homogenate (50 to 50000 pmol/g of mouse liver).

A short description of data set [2]: Plasma and liver pharmacokinetics following a single oral dose in mice (Example 6). The data set is classed as in vivo. The conditions noted are these: CD-1 mice, oral 25 mg/kg, normalized to 1 μmol/kg dose; 1a average of N = 3. The protocol: For each compound, a single oral dose at 25 mg/kg in PEG 200 (dose volume 5 mL/kg) was administered to [CD-1] mice. Untreated animals were used for the collection of control liver. Terminal liver and plasma samples were collected from three animals per time point at 4, 12 and 24 hours post dose and additionally at 1 hour post dose in one occasion of Compound 1 (see Example 5). Liver specimens were collected from all animals immediately after the incision. Freezing forceps stored in liquid nitrogen were used to freeze the liver before excision.
as §1, §2

For the compound `CCOc1nc(N)nc2c1ncn2[C@@H]1O[C@@H]2COP(=O)(OC(C)C)O[C@H]2[C@@]1(C)F` (stereo partly drawn) [Compound A, 6-ethoxy-9-((4aR,6R,7R,7aR)-7-fluoro-2-isopropoxy-7-methyl-2-oxo-tetrahydro-2,5-furo[3,2-d][1,3,2]dioxaphosphinin-6-yl)-9H-purin-2-yl amine], in data set [1] (plasma), the AUC(0-t) amounted to 410 nM·h, the maximum concentration (Cmax) worked out at 100 nM and the Tmax was determined as 120 min.
Regarding `COc1nc(N)nc2c1ncn2[C@@H]1O[C@H](COP(=O)(N[C@@H](C)C(=O)OCC(C)(C)C)Oc2cccc3ccccc23)[C@@H](O)[C@@]1(C)O` (stereo partly drawn) [Compound B, L-Alanine, N-(2′-C-methyl-6-O-methyl-P-1-naphthalenyl-5′-guanylyl)-, 2,2-dimethylpropyl ester], in data set [1] (in vivo), the AUC(0-t) was 0.2 nM·h, the Cmax came out at 0.2 nM and the Tmax came to 30 min.
Consider `CC(C)(CO)C(=O)SCCOP(=O)(NCc1ccccc1)OCC1OC(n2cnc3c(=O)[nH]c(N)nc32)C(C)(O)C1O` (stereo not drawn) [Compound C, 2′-C-methyl-guanosine, 5′-[2-[(3-hydroxy-2,2-dimethyl-1-oxopropyl)thio]ethyl N-(phenylmethyl)phosphoramidate], reference compound], for which, in data set [2], the “Nucleoside triphosphate in Liver AUC0-24” value stood at 290 pmol·h/g and the “Nucleoside triphosphate in Liver Cmax” value is listed as 19 pmol/g. The “Plasma prodrug Tmax” value in data set [1] (in vivo, po) was determined as 360 min.
`CC(C)OC(=O)[C@H](C)N[P@](=O)(OC[C@H]1O[C@@H](n2ccc(=O)[nH]c2=O)[C@](C)(F)[C@@H]1O)Oc1ccccc1` [Compound D, L-Alanine, N—((P(S),2′R)-2′-deoxy-2′-fluoro-2′-methyl-P-phenyl-5′-uridylyl)-, 1-methylethyl ester]: in data set [1] (in vivo), the AUC(0-t) turned out to be 3.5 nM·h, the Cmax is 1.2 nM and the time of peak concentration (Tmax) worked out at 30 min.
